Results reported in patent US20220184037A1, “PHARMACEUTICAL AGENTS TARGETING CANCER STEM CELLS” (THE JOHNS HOPKINS UNIVERSITY, priority 2020, published 2022).

Legend:
YAP1 = experiment: Western blotting of YAP1 expression in bladder cancer cells; format: cell-based, human
Procedure: (§1) Whole cell lysates were extracted using RIPA buffer (Thermo Scientific) supplemented with 10 μL/mL Halt™ Protease Inhibitor Cocktail Kit (Life Technologies) and 30 μL/mL Halt™ Phosphatase Inhibitor Cocktail Kit (Life Technologies). The protein concentrations were determined using a Pierce™ BCA Protein Assay Kit (Life Technologies), and the protein were separated on. NuPAGE 4-12% Bis-Tris Gel (Life Technologies) according to the manufacturer's protocol. COX2 (D5H5), NANOG (D73G4), OCT4 (D7O5Z), CD133 (A3G6K), Snail (C15D3), ZEBI (D80D3), Vimentin (D21H3), CDH2 (D4R1H), CDH1 (24E10), p-EGFR (D7A5), EGFR (D38B1), p-AKT (D9E), AKT (cat #, 9272), p-ERK (D13.14.4E), ERK (137F5), p-YAP1 (D9W2I), p-Src (cat #, 2101), Src (36D10), DNMT1 (D63A6), DNMT3A (D23G1), and DNMT3B (D7070) antibodies were obtained from Cell Signaling Technology (Danvers, Mass., USA), except for SOX2 (EPR3131; Abeam, Cambridge, USA), YAP1 (ab52771; Abeam), CD24 (cat #, AF5247-SP; R&D Systems, Minneapolis USA) and β-actin (A2228; Sigma-Aldrich). Secondary horseradish peroxidase (HRP)-conjugated antibodies were obtained from Cell Signaling Technology, and chemiluminescent detection of HRP-labeled antibodies was performed using Amersham ECL Prime Western Blotting Detection Reagent (GE Healthcare, Piscataway, USA). As loading control, β-actin was used.

SOX2 = experiment: Western blotting / flow cytometry of SOX2 expression in bladder cancer cells; format: cell-based, human
Procedure: as §1
For extracellular staining, cells (1×10^6/100 μL stain buffer) were incubated with PE-Vio770-conjugated anti-human CD133 (293C3; Miltenyi Biotec, Auburn, USA) or PE-conjugated anti-human CD24 antibody (cat #, 560991; BD Biosciences) for 30 min at 4° C. in dark. PE-Vio770-conjugated anti-IgG1κ Isotype (cat #, 130-098-563; Miltenyi Biotec) and PE-conjugated IgG2a, κ Isotype (cat #, 555574; BD Biosciences) were used as control for CD133 and CD24 staining, respectively. Staining for intracellular SOX2 was carried out using the BD Cytofix/Cytopem Fixation/Permeabilization Kit (BD Biosciences) according to manufacturer's protocol. The cells were incubated with Alexa Fluor 647-conjugated anti-SOX2 antibody (cat #, 560302; BD Biosciences) for 40 min at 4° C. in dark. Alexa Fluor 647-conjugated anti-IgG2a, κ Isotype (cat #, 558053; BD Biosciences) was used as control. Data were acquired on a BD FACSCalibur flow cytometer (BD Biosciences) using BD CellQuest Pro software (BD Biosciences) and analyzed with FlowJo software v10.1 (Tree Star, Ashland, USA).

[1] = tested on: bladder cancer cells (urothelial CSCs); experiment: Sphere formation assay; format: cell-based, human; details: for sphere-forming ability / sphere formation: COX2 inhibitor or EP4 antagonist alone
Procedure: Sphere formation was induced by culturing cells (2×10^4/well) in […] F12 50/50 Mix (Mediatech) supplemented with B-27 (Life Technologies), 20 ng/mL FGF-basic (Peprotech), 20 ng/mL EGF (Peprotech). Cell culture was performed in ultra-low attachment 6 well plates (Corning, Lowell, USA) for 10 days. The medium was replaced every other day. Sphere formation was evaluated using the inverted phase-contrast microscope, and single sphere with a diameter larger than 100 gm was counted using NIS-Elements Microscope Imaging Software. To redifferentiate spheres, spheres were plated in standard growth medium with 10% FBS in dishes supporting cell attachment, and incubated for 7 days. For self-renewal assay, primary spheres were collected by gentle centrifugation (5 min at 400×g), dissociated with Stempro Accutase Cell Dissociation Reagent (Life Technologies), and mechanically disrupted with a pipette. The cell suspension was sieved through 40 μm cell strainer cap filter to achieve a single-cell suspension, and then equal numbers of alive cells were plated in ultralow attachment plates to generate the second spheres. Again, spheres were counted on day 14 and digested to generate the third Spheres. All the experiments were performed in triplicate and repeated at least three times.

let-7 = let-7 expression by Q-RT-PCR; format: cell-based, human; details: parental or spheroid bladder cancer cells
Procedure: (§2) Total RNA from cell lines was isolated using the RNeasy Plus Mini kit (Qiagen, Valencia, USA) according to the manufacturer's protocol. Total RNA extraction from bladder tissue was performed with the QIAzol Lysis Reagent (Qiagen) followed by phenol extraction and ethanol precipitation. Total RNA was eluted in DEPC treated water and stored at −80 ° C. Total RNA extraction from urine was performed using the MirVana miRNA Isolation Kit (Ambion, Austin, USA). These total RNA were converted to cDNA using the SuperScript III First-Strand Synthesis System (Life technologies, Carlsbad, USA), which was then used as a template for Q-RT-PCR. Q-RT-PCR was performed using the Fast SYBR Green Master Mix (Thermo Fisher Scientific, Waltham, USA) on a 7900HT Fast Real-Time PCR System (Life technologies) in triplicate. Micro RNA (miRNA) extraction was performed using the MirVana miRNA Isolation Kit, and was reverse transcribed using TaqMan reverse transcription kit (Applied Biosystems, Foster City, USA) and miRNA-specific RT primers provided with TaqMan microRNA assays (Applied Biosystems). Q-RT-PCR for miRNAs was performed using the TaqMan Universal PCR Master Mix according to the manufacturer's protocol. SDS software (Applied Biosystems) was used to determine cycle threshold (Ct) values. Expression level was quantified relative to β-actin for mRNA and RNU6B for miRNA using the 2-ΔΔCt method (12).
For demethylation, cells (1×10^6/T-75 flask) were treated with […] of the demethylating agent 5-Aza-dC (Sigma) dissolved in 50% acetic acid or were mock-treated with phosphate buffered saline (PBS) including the same amount of acetic acid every 24 hours for 5 days. When combined with the histone deacetylase inhibitor TSA (Sigma), 300 nmol/L TSA was added to the medium for the final 24 hours.

[2] = tested on: let-7 host gene MIRLET7BHG promoter; experiment: Bisulfite sequencing of let-7 host gene promoter methylation; format: cell-based, human; details: 10 μM celecoxib, 2 μM PGE2, or 5 μM 5-Aza-dC for 5 days
Procedure: Cell pellets were digested with 1% sodium dodecyl sulfate and 50 μg/mL proteinase K (Roche, Nutley, USA) at 48° C. overnight. Isolation of genomic DNA from cell lines was performed with the phenol-chloroform extraction protocol followed by ethanol precipitation. Bisulfite treatment was conducted using an EpiTect Bisulfite K ft (QIAGEN, Valencia, USA), and was subsequently amplified via PCR using primers as shown in the following table. PCR products were purified using the QIAquick Gel Extraction kit (Qiagen), and sequenced by Genewiz DNA sequencing service (Genewiz, South Plainfield, USA). The data were analyzed using the Sequence Scanner v1.0 software (Life technologies). A methylation frequency of ≥50% of total CpG sites within the amplified region was considered “methylation-positive”. For demethylation, cells ([…]) dissolved in 50% acetic acid or were mock-treated with phosphate buffered saline (PBS) including the same amount of acetic acid every 24 hours for 5 days. When combined with the histone deacetylase inhibitor TSA (Sigma), 300 nmol/L TSA was added to the medium for the final 24 hours.

[3] = Body weight of treated mice; format: in vivo; details: mouse, in vivo
Procedure: For therapeutic efficacy, mice were randomly assigned into experimental groups (five mice per group) when tumors reached a volume of […]. For celecoxib and/or VP treatment, celecoxib (5 mg/kg) was administered via intraperitoneal (i.p.) injection once a day (17), and VP (50 mg/kg) was administered via i.p. every other day (18). EP4 antagonist ONO-AE3-208 (10 mg/kg) was administered via i.p. once a day (19). Control was applied with same volume (10 μL per injection) of 10% dimethyl sulphoxide in 1% TWEEN 80 (Sigma-Aldrich). For GEM and CDDP (GC) treatment (i.p.), CDDP (6 mg/kg) was only applied after the first GEM (60 mg/kg) treatment on day 2, followed by three consecutive treatments of GEM on day 5, 8 and 11 (17). The next cycle was started on day 18, and the treatment was continued until tumor reached 2 cm in diameter. For erlotinib treatment, the mice were treated once a day, 6 days per week, by oral gavage with erlotinib (100 mg/kg) or control (PBS containing 0.5% methyl cellulose (Sigma-Aldrich) and 0.1% TWEEN 80) (20). Tumor size was measured at least every three days. Therapeutic efficacy was assessed using percentage change after treatment related to tumor size before treatment. […]

COX2 = experiment: Western blotting of COX2 expression in bladder cancer cells; format: cell-based, human
Procedure: as §1

[4] = tested on: panel of miRNAs in BFTC 905 cells; experiment: Expression of a panel of miRNAs; format: cell-based, human; details: addition of PGE2 to COX2 inhibitor
Procedure: as §2

DNMT 1 and 3A = experiment: Western blotting of DNMTs; format: cell-based, human; details: PGE2-treated cells
Procedure: as §1

[5] = COX2 inhibitor or EP4 antagonist alone (FIG. 2A-B, S7)
[6] = addition of PGE2 to celecoxib treatment

Question: For “EGF: Recombinant human epidermal growth factor”, which YAP1 expression (YAP1; EGF-stimulated EGFR signaling) is on record?
Answer: increased

Question: What about the SOX2 expression (SOX2; EGF-stimulated EGFR signaling) of the same molecule?
Answer: increased

Question: Which “sphere-forming ability / sphere formation” value [1] does the source give for `CC(C(=O)Nc1cc(C#N)ccc1CCCC(=O)O)c1ccc(F)c2ccccc12` (stereo not shown) [EP4-specific antagonist, ONO-AE3-208] here?
Answer: dramatic reduction

Question: And the SOX2 expression (SOX2; [5])?
Answer: dramatic reduction

Question: With `Nc1ncn([C@H]2C[C@H](O)[C@@H](CO)O2)c(=O)n1` [5-Aza-dC, 5-Aza-2′-deoxycytidine] as the molecule, how does the let-7 expression (let-7) read?
Answer: restoration of let-7 expression

Question: And the “promoter methylation of the let-7 host gene” value [2]?
Answer: demethylated

Question: For `CCc1cccc2c3c([nH]c12)C(CC)(CC(=O)O)OCC3` (stereo not shown) [etodolac, Etodolac], which “sphere-forming ability / sphere formation” value [1] is on record?
Answer: dramatic reduction

Question: And the SOX2 expression (SOX2; [5])?
Answer: dramatic reduction

Question: For `C=Cc1c(C)c2cc3nc(cc4[nH]c(cc5nc(cc1[nH]2)C(C)=C5CCC(=O)O)c(CCC(=O)OC)c4C)[C@@]1(C)C3=CC=C(C(=O)OC)[C@H]1C(=O)OC` [VP, 3-[(23S,24R)-14-ethenyl-5-(3-methoxy-3-oxopropyl)-22,23-bis(methoxycarbonyl)-4,10,15,24-tetramethyl-25,26,27,28-tetraazahexacyclo[16.6.1.1^3,6.1^8,11.1^13,16.0^19,24]octacosa-1,3,5,7,9,11(27),12,14,16,18(25),19,21-dodecaen-9-yl]propanoic acid], which body weight loss [3] is on record?
Answer: did not observe body weight loss

Question: What about the “expression of SOX2 and its related molecules” value (SOX2; VP alone) of the same molecule?
Answer: reduced expression

Question: What about the COX2 expression (COX2; VP alone) of the same molecule?
Answer: induced COX2 expression in a dose-dependent manner

Question: Which “COX2 inhibitor-induced YAP1 expression” value (YAP1; treatment with the Src inhibitor (FIG. S8H)) does the source give for `CC(C)(C)n1nc(-c2ccc(Cl)cc2)c2c(N)ncnc21` [Src inhibitor, PP2] here?
Answer: downregulated

Question: Which let-7 expression (let-7) does the source give for `CCCCC[C@H](O)/C=C/[C@H]1[C@H](O)CC(=O)[C@@H]1C/C=C\CCCC(=O)O` [PGE2, Prostaglandin E2] here?
Answer: reduced its expression

Question: What about the celecoxib-repressed sphere-forming ability [1, 6] of the same molecule?
Answer: restored

Question: And the “promoter methylation of the let-7 host gene” value [2]?
Answer: Promoter methylation of the let-7 host gene was observed

Question: What about the “expression of several miRNAs” value [4] of the same molecule?
Answer: reduced these expression

Question: What about the “celecoxib-repressed SOX2 expression” value (SOX2; [6]) of the same molecule?
Answer: restored

Question: And the “DNMT 1 and 3A expression” value (DNMT 1 and 3A)?
Answer: upregulated

Question: With `N.N.[Cl][Pt][Cl]` [cisplatin, Cisplatin] as the molecule, how does the YAP1 expression (YAP1; CDDP chemotherapy alone) read?
Answer: overexpression

Question: What about the sphere formation ([1]; CDDP chemotherapy alone) of the same molecule?
Answer: increased sphere formation

Question: And the SOX2 expression (SOX2; CDDP chemotherapy alone)?
Answer: overexpression

Question: And the COX2 expression (COX2; CDDP chemotherapy alone)?
Answer: overexpression
